Where two headings read alike, the source gives them in different places.
Tests used:
S. aureus 3136 = assay: MIC against S. aureus 3136; assay type: cell-based; conditions: Staphylococcus aureus; Table 2; S. aureus 3136, MSSA; alone; read-out: MIC
From the text: (§1) Without limitation, the present cephem compounds alone, or in combination with one or more β-lactamase inhibitors, may provide improved antibacterial efficacy, particularly in antibiotic-resistant bacterial strains. It is believed that the present compounds may be structurally different from known compounds and, as a result, may be more basic in nature. It is an advantage that the present compounds may extend the spectrum of effective bacterial compounds, particularly against previously-resistant bacteria (e.g. ESKAPE organisms), and/or gram negative bacteria, without significant side effects. In a preferred embodiment, the present cephem compound may comprise reference compound ceftazidime, which may be used alone, or in combination with one or more β-lactamase inhibitors, such as NXL-104. As shown, the foregoing composition was tested for minimum inhibitory concentration (MIC, μg/mL) against bacteria listed in Tables 2-3.

S. aureus3137 = assay: MIC against S. aureus3137; assay type: cell-based, S. aureus; conditions: Staphylococcus aureus; Table 2; S. aureus3137, MSSA; alone; read-out: MIC
From the text: as §1

S. aureus 3147 = assay: MIC against S. aureus 3147; assay type: cell-based; conditions: Staphylococcus aureus; Table 2; S. aureus 3147, MSSA; alone; read-out: MIC
From the text: as §1

S. pneumoniae 2392 = assay: MIC against S. pneumoniae 2392; assay type: cell-based; conditions: Streptococcus pneumoniae; Table 2; S. pneumoniae 2392, Pen R; alone; read-out: MIC
From the text: as §1

S. pneumoniae 2403 = assay: MIC against S. pneumoniae 2403; assay type: cell-based; conditions: Streptococcus pneumoniae; Table 2; S. pneumoniae 2403, Pen S; alone; read-out: MIC
From the text: as §1

E. cloacae 2704 = assay: MIC against E. cloacae 2704; assay type: cell-based; conditions: Enterobacter cloacae; Table 2; E. cloacae 2704, P99; alone; read-out: MIC
From the text: as §1

E. cloacae 566 = assay: MIC against E. cloacae 566; assay type: cell-based; conditions: Enterobacter cloacae; Table 2; E. cloacae 566, Caz R, IMP S; alone; read-out: MIC
From the text: as §1

K. pneumoniae 4104 = assay: MIC against K. pneumoniae 4104; assay type: cell-based; conditions: K. pneumoniae 4104, KPC-3, TEM-1, alone, read-out: MIC
Method: (§2) As shown, the foregoing composition was tested for minimum inhibitory concentration (MIC, μg/mL) against bacteria listed in Tables 2-3.

K. pneumoniae 4105 = assay: MIC against K. pneumoniae 4105; assay type: cell-based; conditions: K. pneumoniae 4105, KPC-3, TEM-1, SHV-11, alone, read-out: MIC
Method: as §2

K. pneumoniae 4107 = assay: MIC against K. pneumoniae 4107; assay type: cell-based; conditions: K. pneumoniae 4107, KPC-2, TEM-1, SHV-11, alone, read-out: MIC
Method: as §2

M. morganii 2409 = assay: MIC against M. morganii 2409; assay type: cell-based; conditions: Morganella morganii; Table 2; M. morganii 2409, High level cephase, β-Lactamase producing; alone; read-out: MIC
From the text: as §1

E. coli 2671 = assay: MIC against E. coli 2671; assay type: cell-based; conditions: Escherichia coli; Table 2; E. coli 2671, VIM-19; alone; read-out: MIC
From the text: as §1

E. coli 4080 = assay: MIC against E. coli 4080; assay type: cell-based; conditions: Escherichia coli; Table 2; E. coli 4080, TEM-10; alone; read-out: MIC
From the text: as §1

E. coli 4098 = assay: MIC against E. coli 4098; assay type: cell-based; conditions: Escherichia coli; Table 2; E. coli 4098, CTX-M-15, TEM-1; alone; read-out: MIC
From the text: as §1

E. coli 4102 = assay: MIC against E. coli 4102; assay type: cell-based; conditions: Escherichia coli; Table 2; E. coli 4102, CTX-M-14; alone; read-out: MIC
From the text: as §1

K. baumanii 2579 = assay: MIC against K. baumanii 2579; assay type: cell-based; conditions: Table 2; K. baumanii 2579, OXA-25; alone; read-out: MIC
From the text: as §1

K. baumanii 4091 = assay: MIC against K. baumanii 4091; assay type: cell-based; conditions: Table 2; K. baumanii 4091, OXA-23; alone; read-out: MIC
From the text: as §1

E. cloacae 2689 = assay: MIC against E. cloacae 2689; assay type: cell-based; conditions: Enterobacter cloacae; Table 3; E. cloacae 2689, KPC-2; alone; read-out: MIC
Method: as §2

E. cloacae 2705 = assay: MIC against E. cloacae 2705; assay type: cell-based; conditions: Enterobacter cloacae; Table 3; E. cloacae 2705, VIM-1, KPC-3type; alone; read-out: MIC
Method: as §2

E. cloacae 2706 = assay: MIC against E. cloacae 2706; assay type: cell-based; conditions: Enterobacter cloacae; Table 3; E. cloacae 2706, VIM-1, KPC-3; alone; read-out: MIC
Method: as §2

E. cloacae 2709 = assay: MIC against E. cloacae 2709; assay type: cell-based; conditions: Enterobacter cloacae; Table 3; E. cloacae 2709, KPC-3, VIM-1; alone; read-out: MIC
Method: as §2

E. cloacae 2710 = assay: MIC against E. cloacae 2710; assay type: cell-based; conditions: Enterobacter cloacae; Table 3; E. cloacae 2710, KPC-3, VIM-1; alone; read-out: MIC
Method: as §2

E. coli 2666 = assay: MIC against E. coli 2666; assay type: cell-based; conditions: Escherichia coli; Table 3; E. coli 2666, KPC-2; alone; read-out: MIC
Method: as §2

K. pneumoniae 4088 = assay: MIC against K. pneumoniae 4088; assay type: cell-based; conditions: Klebsiella pneumoniae; Table 3; K. pneumoniae 4088, KPC-3; alone; read-out: MIC
Method: as §2

Measured: MIC

CC(C)(O/N=C(\C(=O)N[C@@H]1C(=O)N2C(C(=O)[O-])=C(C[n+]3ccc4c(ccn4Cc4ccc(C(=N)N)cc4)c3)CS[C@H]12)c1csc(N)n1)C(=O)O [Ex-1, (6R,7R)-7-{[(2Z)-2-(2-Amino-1,3-thiazol-4-yl)-2-{[(2-carboxypropan-2-yl)oxy]imino}acetyl]-amino}-3-{[1-(4-carbamimidoylbenzyl)-1H-pyrrolo[3,2-c]pyridin-5-ium-5-yl]methyl}-8-oxo-5-thia-1-azabicyclo[4.2.0]oct-2-ene-2-carboxylate]
16 µg/mL: E. cloacae 2704 | K. pneumoniae 4104; Klebsiella pneumoniae, 4104, Table 2 | K. pneumoniae 4105; Klebsiella pneumoniae, 4105, Table 2 | K. pneumoniae 4107; Klebsiella pneumoniae, 4107, Table 2 | E. coli 2671 | K. baumanii 4091
> 32 µg/mL: E. cloacae 2705 | E. cloacae 2706 | E. cloacae 2710 | K. pneumoniae 4088
1 µg/mL: E. coli 4102
2 µg/mL: S. aureus 3136 | S. aureus 3147 | S. pneumoniae 2392
≤ 0.06 µg/mL: S. pneumoniae 2403
8 µg/mL: S. aureus3137 | M. morganii 2409
4 µg/mL: E. cloacae 566 | E. coli 4080 | E. coli 4098
32 µg/mL: K. pneumoniae 4104; Klebsiella pneumoniae, 4104, Table 3 | K. pneumoniae 4105; Klebsiella pneumoniae, 4105, Table 3 | K. pneumoniae 4107; Klebsiella pneumoniae, 4107, Table 3 | K. baumanii 2579 | E. cloacae 2689 | E. cloacae 2709 | E. coli 2666

Source: patent USRE48097E1, “Cephem compounds, their production and use” (priority 2015, dated 2020)
